Measurements taken from PubChem BioAssay (NCI).
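Where inhibition never reached the appropriate level, the endpoint shown equals the highest concentration tested. Otherwise, values were interpolated linearly from a five-concentration, 48-hour dose response in 96-well plates. TGI is the concentration that stops growth completely.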

Key:
Experiment in all cases: growth of human tumour cells (NCI), 48 h
HOP-18 NSCLC = tested on: HOP-18 NSCLC
SNB-78 CNS = tested on: SNB-78 CNS
DMS 273 small cell lung = tested on: DMS 273 small cell lung
XF 498 CNS = tested on: XF 498 CNS
M19-MEL melanoma = tested on: M19-MEL melanoma
RXF-631 renal = tested on: RXF-631 renal
MDA-N = tested on: MDA-N

Compound | TGI (HOP-18 NSCLC) | TGI (SNB-78 CNS) | TGI (DMS 273 small cell lung) | TGI (XF 498 CNS) | TGI (M19-MEL melanoma) | TGI (RXF-631 renal) | TGI (MDA-N)
COc1ccccc1NC(=O)C1=C(C)NC(C)=C(C(=O)Nc2ccccc2OC)C1c1cccc2ccccc12 | > 100 µM | 62.5 µM | > 100 µM | > 100 µM | > 100 µM | > 100 µM | 
O=C1c2cccc3c(Cl)ccc(c23)C(=O)N1CCCN1CCN(CCCN2C(=O)c3cccc4c(Cl)ccc(c34)C2=O)CC1 | > 100 µM | > 100 µM | > 100 µM | > 100 µM |  | > 100 µM | 
CCOc1cc2c(=O)oc3c(OC)ccc4ccc(c1OC)c2c43 |  |  |  |  |  |  | > 100 µM
ClC1c2ccccc2C2(c3ccccc3)OOC1(c1ccccc1)O2 (stereo not given) |  | 3.19 µM | 3.17 µM |  |  |  | 
Cc1cccc(C(C)C)c1NC(=O)CCl | > 100 µM | > 100 µM | > 100 µM |  | > 100 µM |  | 
CC(C)CN1CC(C)C(=O)NC1=O (stereo not given) |  | > 100 µM | > 100 µM | > 100 µM | > 100 µM |  | 
CCCC(C)c1c(Cl)nc(Cl)nc1Cl (stereo not given) |  |  |  |  |  |  | 21 µM
CCC(C)c1cccc(C)c1NC(=O)C(=O)Cc1nc2ccccc2s1 (stereo not given) | > 100 µM | > 100 µM | > 100 µM | > 100 µM | > 100 µM |  | 
CN(C)CCNC(=O)c1c2ccccc2cc2ccccc12 | > 100 µM | > 100 µM | > 100 µM | 44.8 µM | > 100 µM |  | 
Cc1ccc(/C=C/C(=O)c2ccc([N+](=O)[O-])cc2)cc1 | > 100 µM | > 100 µM | > 100 µM | > 100 µM | > 100 µM | > 100 µM | 
C=C1CCC2C(C)(CO)C(O)CCC2(C)C1C/C=C1/CCOC1=O (stereo not given) | > 100 µM |  | > 100 µM |  | > 100 µM |  | 
CN(C)C(=S)/N=c1\ss/c(=N\C(=S)N(C)C)n1Cc1ccco1 | > 100 µM | > 100 µM | > 100 µM |  | > 100 µM |  | 
OCC(O)COc1c(Cl)cc(Cl)cc1Cl (stereo not given) | > 100 µM | > 100 µM | > 100 µM | > 100 µM | > 100 µM | > 100 µM | 
O=S1c2ccccc2NC(c2ccc3ccccc3c2)CC1c1ccccc1 (stereo not given) | > 100 µM |  | 91.6 µM | 52.8 µM | 43.3 µM |  | 
CC[C@H]1CN(C)[C@H]2Cc3c([nH]c4ccccc34)C(=O)C[C@H]1C2C(=O)OC (stereo not given in full) |  |  |  |  |  |  | > 100 µM
CCOC(=O)C(=O)Nc1ccccc1OCC | > 100 µM | > 100 µM |  | > 100 µM | > 100 µM |  | 
O=C1CCNC(=O)NC1 | > 100 µM | > 100 µM | > 100 µM | > 100 µM | > 100 µM | > 100 µM | 
Oc1ccc2ccccc2c1N=Nc1ccc(Cl)cc1 |  |  |  |  |  |  | > 100 µM
CC#CC#C/C=C1\C=CC2(OC=CC2OC(C)=O)O1 (stereo not given) |  | 18.7 µM | 49.1 µM | 37.7 µM |  | 33.1 µM | 30.1 µM
COC1C(CO)OC(n2c3c(Cl)cccc3c3c4c(c5c6cccc(Cl)c6[nH]c5c32)C(=O)NC4=O)C(O)C1O (stereo not given) |  | > 100 µM | 1.3 µM | 0.931 µM | 0.898 µM | 84.3 µM | 3.15 µM
CCCCCCCCCCCCCCCC(=O)OCC1OC(OC)C(NC(=O)N(CCCl)N=O)C(O)C1O (stereo not given) | > 100 µM | > 85.5 µM | 25.2 µM | 25.7 µM | > 89.6 µM |  | 32 µM
O=C1CCCC(O)=C1SC1=C(O)CCCC1=O | > 100 µM | > 100 µM | > 100 µM |  | > 100 µM | > 100 µM | 
CN1C(=O)CCC1c1ccc2c(c1)oc(=O)n2C (stereo not given) | > 100 µM | > 100 µM | > 100 µM | > 100 µM | > 100 µM |  | 
O=C(Oc1ccc2c(-c3ccccc3)c(C(=O)Nc3ccc(Cl)cc3)c(=O)oc2c1)c1ccccc1 | > 100 µM |  | > 100 µM | > 100 µM | > 100 µM |  | 
CN(C)c1ccc2cc3ccc(N(C)C)cc3nc2c1 |  |  |  |  |  |  | 3.03 µM
O=C1/C(=C/c2ccc(Cl)cc2)CCC1CN1CCOCC1 (stereo not given) | 29.7 µM | 48.9 µM | 11.9 µM | 4.97 µM |  | > 62.5 µM | 18.4 µM
NC(CCc1ncc(-c2ccccc2)s1)C(=O)O (stereo not given) | > 100 µM | > 100 µM | > 100 µM |  |  | > 100 µM | 
O=c1ccn(C2(CO)C=C(CO)C(O)C2O)c(=O)[nH]1 (stereo not given) | > 25.7 µM | > 25.7 µM | > 25.7 µM |  | > 25.7 µM | > 25.7 µM | 
